Laboratory results taken from ChEMBL document CHEMBL3822442, “Synthesis and Pharmacological Characterization of Novel Glucagon-like Peptide-2 (GLP-2) Analogues with Low Systemic Clearance” (J Med Chem, 2016).
Calls of active or inactive are those of the source. No cut-off for these calls is given here. Non-standard residues stand in square brackets, D forms with d. Residues, ends and D or L forms follow the SMILES beside them. Nle = CCCC[C@H](N)C(=O)O

What was measured:
Format in all cases: cell-based
[1] = molecular target: T1, Glucagon-like peptide 2 receptor (Homo sapiens, UniProt O95838); assay: Agonist activity at human GLP2R expressed in HEK293 cells after 5 hrs by luciferase reporter gene assay
T1 sequence (O95838 whole entry): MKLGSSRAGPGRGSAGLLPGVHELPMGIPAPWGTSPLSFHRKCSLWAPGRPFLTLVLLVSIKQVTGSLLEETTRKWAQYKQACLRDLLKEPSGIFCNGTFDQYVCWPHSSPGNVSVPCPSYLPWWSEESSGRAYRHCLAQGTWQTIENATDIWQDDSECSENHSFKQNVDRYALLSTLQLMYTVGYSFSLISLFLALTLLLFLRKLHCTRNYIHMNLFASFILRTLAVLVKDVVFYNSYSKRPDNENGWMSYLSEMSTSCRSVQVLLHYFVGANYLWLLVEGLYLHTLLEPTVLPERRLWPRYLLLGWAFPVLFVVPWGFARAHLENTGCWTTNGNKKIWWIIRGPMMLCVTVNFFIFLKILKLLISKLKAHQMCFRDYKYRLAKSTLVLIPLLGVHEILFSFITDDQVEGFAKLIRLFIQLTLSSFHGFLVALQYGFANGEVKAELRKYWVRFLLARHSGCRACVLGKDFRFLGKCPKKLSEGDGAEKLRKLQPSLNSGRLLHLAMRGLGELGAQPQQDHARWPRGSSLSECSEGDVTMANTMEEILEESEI

[2] = molecular target: Glucagon-like peptide 1 receptor (Homo sapiens, UniProt P43220); assay: Agonist activity at human GLP1R expressed in HEK293 cells after 5 hrs by luciferase reporter gene assay
[3] = molecular target: T2, Glucagon-like peptide 2 receptor (Homo sapiens) (UniProt O95838); assay: Potency index, ratio of compound EC50 to compound 2 EC50 for human GLP2R expressed in HEK293 cells
T2 sequence (whole entry): T1 sequence (O95838 whole entry)

HEK293 = assay: Selectivity ratio of EC50 for human GLP1R expressed in HEK293 cells to EC50 for human GLP2R expressed in HEK293
[4] = molecular target: Glucagon receptor (Homo sapiens) (UniProt P47871); assay: Agonist activity at human GCGR expressed in HEK293 cells after 5 hrs by luciferase reporter gene assay
Sequence of Glucagon receptor (Homo sapiens) (P47871 whole entry): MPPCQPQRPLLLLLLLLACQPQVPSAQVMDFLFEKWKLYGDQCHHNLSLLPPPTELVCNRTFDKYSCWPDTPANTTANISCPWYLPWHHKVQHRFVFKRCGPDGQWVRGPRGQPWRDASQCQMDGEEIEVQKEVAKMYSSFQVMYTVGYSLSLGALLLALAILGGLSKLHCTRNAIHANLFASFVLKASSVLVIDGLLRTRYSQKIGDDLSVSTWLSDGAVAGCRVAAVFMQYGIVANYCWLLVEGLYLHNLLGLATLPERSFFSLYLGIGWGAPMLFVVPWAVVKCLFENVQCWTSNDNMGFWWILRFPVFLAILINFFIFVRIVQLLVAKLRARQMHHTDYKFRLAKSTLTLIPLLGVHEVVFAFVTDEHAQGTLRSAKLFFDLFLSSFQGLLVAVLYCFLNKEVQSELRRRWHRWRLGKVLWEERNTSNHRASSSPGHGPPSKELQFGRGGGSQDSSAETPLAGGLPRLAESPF

Sequence of Glucagon-like peptide 1 receptor (P43220 whole entry): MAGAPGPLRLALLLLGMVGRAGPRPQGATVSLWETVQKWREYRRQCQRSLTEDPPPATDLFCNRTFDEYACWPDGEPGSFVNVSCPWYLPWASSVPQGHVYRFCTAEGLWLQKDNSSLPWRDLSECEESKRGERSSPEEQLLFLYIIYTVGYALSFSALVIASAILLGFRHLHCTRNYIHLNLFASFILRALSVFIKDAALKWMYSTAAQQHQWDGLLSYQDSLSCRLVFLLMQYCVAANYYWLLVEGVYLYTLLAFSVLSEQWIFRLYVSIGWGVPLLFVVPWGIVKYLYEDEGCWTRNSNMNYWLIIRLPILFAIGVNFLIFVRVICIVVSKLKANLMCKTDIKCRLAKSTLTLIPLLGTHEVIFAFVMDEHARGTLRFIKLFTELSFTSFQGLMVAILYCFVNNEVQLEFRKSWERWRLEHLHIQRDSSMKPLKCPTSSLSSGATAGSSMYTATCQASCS

EC50 [1] [nM]	EC50 [2] [nM]	Ratio EC50 [3]	Activity [4]	Structure (SMILES)	Ratio EC50 (HEK293)
2.6	> 1000	12	inactive	CCCCC(NC(=O)[C@H](CCC(=O)O)NC(=O)[C@H](CC(=O)O)NC(=O)[C@H](CO)NC(=O)[C@H](Cc1ccccc1)NC(=O)[C@H](CO)NC(=O)CNC(=O)[C@H](CC(=O)O)NC(=O)CNC(=O)[C@@H](N)Cc1cnc[nH]1)C(=O)N[C@@H](CC(N)=O)C(=O)N[C@H](C(=O)N[C@H](C(=O)N[C@@H](CC(C)C)C(=O)N[C@@H](CC(=O)O)C(=O)N[C@@H](CC(N)=O)C(=O)N[C@H](CC(C)C)C(=O)N[C@@H](C)C(=O)N[C@@H](C)C(=O)N[C@@H](CCCNC(=N)N)C(=O)N[C@@H](CC(=O)O)C(=O)N[C@@H](Cc1ccccc1)C(=O)N[C@H](C(=O)N[C@@H](CC(N)=O)C(=O)N[C@@H](Cc1c[nH]c2ccccc12)C(=O)N[C@@H](CC(C)C)C(=O)N[C@H](C(=O)N[C@@H](CCC(N)=O)C(=O)N[C@H](C(=O)N[C@@H](CCCCN)C(N)=O)[C@@H](C)O)[C@@H](C)CC)[C@@H](C)CC)[C@@H](C)CC)[C@@H](C)O (stereo not given in full)	> 380
0.35	> 1000	1.6	inactive	CCCCC(NC(=O)[C@H](CCC(=O)O)NC(=O)[C@H](CC(=O)O)NC(=O)[C@H](CO)NC(=O)[C@H](Cc1ccccc1)NC(=O)[C@H](CO)NC(=O)CNC(=O)[C@H](CC(=O)O)NC(=O)CNC(=O)[C@@H](N)Cc1cnc[nH]1)C(=O)N[C@@H](CC(N)=O)C(=O)N[C@H](C(=O)N[C@@H](C(=O)N[C@@H](CC(C)C)C(=O)N[C@@H](CC(=O)O)C(=O)N[C@@H](CC(N)=O)C(=O)N[C@@H](CC(C)C)C(=O)N[C@@H](C)C(=O)N[C@@H](C)C(=O)N[C@@H](CCCNC(=N)N)C(=O)N[C@@H](CC(=O)O)C(=O)N[C@@H](Cc1ccccc1)C(=O)N[C@H](C(=O)N[C@@H](CC(N)=O)C(=O)N[C@@H](Cc1c[nH]c2ccccc12)C(=O)N[C@@H](CC(C)C)C(=O)N[C@H](C(=O)N[C@@H](CCC(N)=O)C(=O)N[C@H](C(=O)N[C@@H](CCCCN)C(N)=O)[C@@H](C)O)[C@@H](C)CC)[C@@H](C)CC)[C@H](C)CC)[C@@H](C)O (stereo not given in full)	> 2800
0.2	> 1000	0.91	inactive	CCCC[C@H](NC(=O)[C@H](CCC(=O)O)NC(=O)[C@H](CC(=O)O)NC(=O)[C@H](CO)NC(=O)[C@H](Cc1ccccc1)NC(=O)[C@H](CO)NC(=O)[C@@H](C)NC(=O)[C@H](CC(=O)O)NC(=O)CNC(=O)[C@@H](N)Cc1cnc[nH]1)C(=O)N[C@@H](CC(N)=O)C(=O)N[C@H](C(=O)N[C@H](C(=O)N[C@@H](CC(C)C)C(=O)N[C@@H](CC(=O)O)C(=O)N[C@@H](CC(N)=O)C(=O)N[C@@H](CC(C)C)C(=O)N[C@@H](C)C(=O)N[C@@H](C)C(=O)N[C@@H](CCCNC(=N)N)C(=O)N[C@@H](CC(=O)O)C(=O)N[C@@H](Cc1ccccc1)C(=O)N[C@H](C(=O)N[C@@H](CC(N)=O)C(=O)N[C@@H](Cc1c[nH]c2ccccc12)C(=O)N[C@@H](CC(C)C)C(=O)N[C@H](C(=O)N[C@@H](CCC(N)=O)C(=O)N[C@H](C(=O)N[C@@H](CCCCN)C(N)=O)[C@@H](C)O)[C@@H](C)CC)[C@@H](C)CC)[C@@H](C)CC)[C@@H](C)O (H-HGD[dA]SFSDE[Nle]NTILDNLAARDFINWLIQTK-NH2)	> 5000
8.1	> 1000	37	inactive	CCCCC(NC(=O)[C@H](CCC(=O)O)NC(=O)[C@H](CC(=O)O)NC(=O)[C@H](CO)NC(=O)[C@H](Cc1ccccc1)NC(=O)[C@@H](CO)NC(=O)CNC(=O)[C@H](CC(=O)O)NC(=O)CNC(=O)[C@@H](N)Cc1cnc[nH]1)C(=O)N[C@@H](CC(N)=O)C(=O)N[C@H](C(=O)N[C@H](C(=O)N[C@@H](CC(C)C)C(=O)N[C@@H](CC(=O)O)C(=O)N[C@@H](CC(N)=O)C(=O)N[C@@H](CC(C)C)C(=O)N[C@@H](C)C(=O)N[C@@H](C)C(=O)N[C@@H](CCCNC(=N)N)C(=O)N[C@@H](CC(=O)O)C(=O)N[C@@H](Cc1ccccc1)C(=O)N[C@H](C(=O)N[C@@H](CC(N)=O)C(=O)N[C@@H](Cc1c[nH]c2ccccc12)C(=O)N[C@@H](CC(C)C)C(=O)N[C@H](C(=O)N[C@@H](CCC(N)=O)C(=O)N[C@H](C(=O)N[C@@H](CCCCN)C(N)=O)[C@@H](C)O)[C@@H](C)CC)[C@@H](C)CC)[C@@H](C)CC)[C@@H](C)O (stereo not given in full)	> 120
16	> 1000	73	inactive	CCCCC(NC(=O)[C@H](CCC(=O)O)NC(=O)[C@@H](CC(=O)O)NC(=O)[C@H](CO)NC(=O)[C@H](Cc1ccccc1)NC(=O)[C@H](CO)NC(=O)CNC(=O)[C@H](CC(=O)O)NC(=O)CNC(=O)[C@@H](N)Cc1cnc[nH]1)C(=O)N[C@@H](CC(N)=O)C(=O)N[C@H](C(=O)N[C@H](C(=O)N[C@@H](CC(C)C)C(=O)N[C@@H](CC(=O)O)C(=O)N[C@@H](CC(N)=O)C(=O)N[C@@H](CC(C)C)C(=O)N[C@@H](C)C(=O)N[C@@H](C)C(=O)N[C@@H](CCCNC(=N)N)C(=O)N[C@@H](CC(=O)O)C(=O)N[C@@H](Cc1ccccc1)C(=O)N[C@H](C(=O)N[C@@H](CC(N)=O)C(=O)N[C@@H](Cc1c[nH]c2ccccc12)C(=O)N[C@@H](CC(C)C)C(=O)N[C@H](C(=O)N[C@@H](CCC(N)=O)C(=O)N[C@H](C(=O)N[C@@H](CCCCN)C(N)=O)[C@@H](C)O)[C@@H](C)CC)[C@@H](C)CC)[C@@H](C)CC)[C@@H](C)O (stereo not given in full)	> 62
0.43	> 1000	2	inactive	CCCCC(NC(=O)[C@H](CCC(=O)O)NC(=O)[C@H](CC(=O)O)NC(=O)[C@H](CO)NC(=O)[C@H](Cc1ccccc1)NC(=O)[C@H](CO)NC(=O)CNC(=O)[C@H](CC(=O)O)NC(=O)CNC(=O)[C@@H](N)Cc1cnc[nH]1)C(=O)N[C@@H](CC(N)=O)C(=O)N[C@H](C(=O)N[C@H](C(=O)N[C@@H](CC(C)C)C(=O)N[C@@H](CC(=O)O)C(=O)N[C@@H](CC(N)=O)C(=O)N[C@@H](CC(C)C)C(=O)N[C@@H](C)C(=O)N[C@@H](C)C(=O)N[C@@H](CCCNC(=N)N)C(=O)N[C@@H](CC(=O)O)C(=O)N[C@@H](Cc1ccccc1)C(=O)N[C@H](C(=O)N[C@H](CC(N)=O)C(=O)N[C@@H](Cc1c[nH]c2ccccc12)C(=O)N[C@@H](CC(C)C)C(=O)N[C@H](C(=O)N[C@@H](CCC(N)=O)C(=O)N[C@H](C(=O)N[C@@H](CCCCN)C(N)=O)[C@@H](C)O)[C@@H](C)CC)[C@@H](C)CC)[C@@H](C)CC)[C@@H](C)O (stereo not given in full)	> 2300
7.1	> 1000	32	inactive	CCCCC(NC(=O)[C@@H](CCC(=O)O)NC(=O)[C@H](CC(=O)O)NC(=O)[C@H](CO)NC(=O)[C@H](Cc1ccccc1)NC(=O)[C@H](CO)NC(=O)CNC(=O)[C@H](CC(=O)O)NC(=O)CNC(=O)[C@@H](N)Cc1cnc[nH]1)C(=O)N[C@@H](CC(N)=O)C(=O)N[C@H](C(=O)N[C@H](C(=O)N[C@@H](CC(C)C)C(=O)N[C@@H](CC(=O)O)C(=O)N[C@@H](CC(N)=O)C(=O)N[C@@H](CC(C)C)C(=O)N[C@@H](C)C(=O)N[C@@H](C)C(=O)N[C@@H](CCCNC(=N)N)C(=O)N[C@@H](CC(=O)O)C(=O)N[C@@H](Cc1ccccc1)C(=O)N[C@H](C(=O)N[C@@H](CC(N)=O)C(=O)N[C@@H](Cc1c[nH]c2ccccc12)C(=O)N[C@@H](CC(C)C)C(=O)N[C@H](C(=O)N[C@@H](CCC(N)=O)C(=O)N[C@H](C(=O)N[C@@H](CCCCN)C(N)=O)[C@@H](C)O)[C@@H](C)CC)[C@@H](C)CC)[C@@H](C)CC)[C@@H](C)O (stereo not given in full)	> 140
1.5	> 1000	6.8	inactive	CCCCC(NC(=O)[C@H](CCC(=O)O)NC(=O)[C@H](CC(=O)O)NC(=O)[C@H](CO)NC(=O)[C@H](Cc1ccccc1)NC(=O)[C@H](CO)NC(=O)CNC(=O)[C@H](CC(=O)O)NC(=O)CNC(=O)[C@@H](N)Cc1cnc[nH]1)C(=O)N[C@@H](CC(N)=O)C(=O)N[C@H](C(=O)N[C@H](C(=O)N[C@@H](CC(C)C)C(=O)N[C@@H](CC(=O)O)C(=O)N[C@H](CC(N)=O)C(=O)N[C@@H](CC(C)C)C(=O)N[C@@H](C)C(=O)N[C@@H](C)C(=O)N[C@@H](CCCNC(=N)N)C(=O)N[C@@H](CC(=O)O)C(=O)N[C@@H](Cc1ccccc1)C(=O)N[C@H](C(=O)N[C@@H](CC(N)=O)C(=O)N[C@@H](Cc1c[nH]c2ccccc12)C(=O)N[C@@H](CC(C)C)C(=O)N[C@H](C(=O)N[C@@H](CCC(N)=O)C(=O)N[C@H](C(=O)N[C@@H](CCCCN)C(N)=O)[C@@H](C)O)[C@@H](C)CC)[C@@H](C)CC)[C@@H](C)CC)[C@@H](C)O (stereo not given in full)	> 660
